These results are taken from patent publication US20230083730A1, “Composition with Anti-Aging Properties and the Selection Method thereof” (Hemix Biotech Limited, priority 2021, published 2023).

In assay [1] the test system is Caenorhabditis elegans. As to conditions: prior art literature; cited from earlier work.
Assay [2] has as its system Caenorhabditis elegans. Description: Caenorhabditis elegans lifespan analysis. In kind it is in vivo. The note with it: 200 μM spermidine alone, 10 μM resveratrol alone, or both combined; FIG. 1a. On the procedure:
According to an embodiment of the present invention, i.e., a method for selecting a composition having anti-aging properties, step 1 of the method is to confirm the life-span enhancing effect of the composition by using Caenorhabditis elegans lifespan analysis. For chemical treatment in Caenorhabditis elegans, four batches of chemical with different ingredients and content were added to the nematode growth medium (NGM) dishes. The NGM with agarose was autoclaved and then cooled down to below 65° C. The NGM was then poured into 60 mm dishes and incubated at room temperature overnight. The solidified NGM dishes were stored at 4° C. Escherichia coli OP50 strain was used as the food source for C. elegans. A single colony of OP50 was incubated in 200 mL of lysogeny broth (LB) medium at 37° C. overnight. The OP50 was then killed by incubation at 65° C. for 30 minutes. The dead OP50 was spread throughout the surface of the NGM dishes. The NGM dishes with dead OP50 were stored at 4° C. for up to 2 weeks. The synchronization of C. elegans was carried out by the bleaching method. 20 L4 larvae were picked to each 60 mm dish with different chemical treatment and cultured at 20° C. They were monitored every day, and the number of living, dead and missing C. elegans were recorded. […]

Assay [3] concerns human bone marrow mesenchymal stem cells (MSCs). Description: human bone marrow mesenchymal stem cell viability assay (MTS). In kind it is cell-based. The note with it: 2 days treatment; FIG. 4. On the procedure: Firstly, cells were cultured in 96-well plate and CellTiter 96® AQueous One Solution Cell Proliferation Assay (MTS) was used to carry out the cell viability assay. For human mesenchymal stem cells (MSCs), they were seeded and cultured in 96-well plate and treated with control, resveratrol, spermidine or combined treatment for 2 days. Human bone marrow mesenchymal stem cells (MSCs) were treated with four batches of chemical having different ingredients and concentrations of spermidine and resveratrol for two days under identical experimental conditions. The ingredients and concentrations of spermidine and resveratrol of the four different chemicals are: control blank, spermidine alone, resveratrol alone, and a combined use of spermidine and resveratrol.

As for `NCCCCNCCCN` [spermidine], the “effective concentration to extend the lifespan of Caenorhabditis elegans” value in assay [1] is 200 µM. The “life span of Caenorhabditis elegans” value in assay [2] is listed as “higher than that of the control blank”. The “cell viability of human bone marrow MSCs” value in assay [3] is listed as “can enhance cell viability”.
On to `Oc1ccc(C=Cc2cc(O)cc(O)c2)cc1` [resveratrol, 3,5,4′-trihydroxystilbene], for which the “effective concentration to extend the lifespan of Caenorhabditis elegans” value in assay [1] is 100 µM. Besides, in assay [2], the “life span of Caenorhabditis elegans” value was “higher than that of the control blank”. Also, the “cell viability of human bone marrow MSCs” value in assay [3] was “can enhance cell viability”.
